One block for each molecule: values may come before it.
How the values were obtained:
[1] = system: adenylate cyclase in rat renal cortical homogenates; experiment: In vitro rat kidney adenylate cyclase bioassay; assay type: biochemical; details: mean potency with 95% confidence limits; against house standard Sephadex-BPTH calibrated to MRC Standard A
Protocol: (§1) In vitro bioassays based on the activation of adenylate cyclase in rat renal cortical homogenates were carried out by the procedure of Marcus and Aurbach (Endocrinology, (1969), 85, 801-810). In vivo bioassays were performed by the method of Parsons, Reit and Robinson (Endocrinology, (1973), 92, 454-462), a procedure based on increase in the serum calcium in the chick after intravenous injection. A house standard of highly purified bovine parathyroid hormone ("Sephadex-BPTH") calibrated against Medical Research Council Standard A (National Institute for Medical Research, London, England) was used for both in vivo and in vitro assays. The biological activities of the synthetic HPTH-(1-34), and the native HPTH-(1-84)-peptides in the in vitro rat kidney adenylate cyclase assay and the in vivo chick hypercalcemia assay are shown in Table 2. Included for comparison are the corresponding data on the native bovine-(1-84) and the synthetic bovine-(1-34) peptides, as well as the analogue [Ala^1 ]-HPTH-(1-34).

[2] = system: serum calcium in the chick; experiment: In vivo chick hypercalcemia bioassay; details: mean potency with 95% confidence limits; intravenous injection; against house standard Sephadex-BPTH calibrated to MRC Standard A
Protocol: as §1

[3] = bioassay systems in vivo and in vitro; cited from earlier work

- In vitro Rat kidney adenylate cyclase [1]: 4085(3550-4700) MRCU/mg
Molecule: CC[C@H](C)[C@H](NC(=O)[C@H](CCC(=O)O)NC(=O)[C@H](CO)NC(=O)[C@@H](NC(=O)[C@H](C)N)C(C)C)C(=O)N[C@@H](CCC(N)=O)C(=O)N[C@@H](CC(C)C)C(=O)N[C@@H](CCSC)C(=O)N[C@@H](Cc1c[nH]cn1)C(=O)N[C@@H](CC(N)=O)C(=O)N[C@@H](CC(C)C)C(=O)NCC(=O)N[C@@H](CCCCN)C(=O)N[C@@H](Cc1c[nH]cn1)C(=O)N[C@@H](CC(C)C)C(=O)N[C@@H](CC(N)=O)C(=O)N[C@@H](CO)C(=O)N[C@@H](CCSC)C(=O)N[C@@H](CCC(=O)O)C(=O)N[C@@H](CCCNC(=N)N)C(=O)N[C@H](C(=O)N[C@@H](CCC(=O)O)C(=O)N[C@@H](Cc1c[nH]c2ccccc12)C(=O)N[C@@H](CC(C)C)C(=O)N[C@@H](CCCNC(=N)N)C(=O)N[C@@H](CCCCN)C(=O)N[C@@H](CCCCN)C(=O)N[C@@H](CC(C)C)C(=O)N[C@@H](CCC(N)=O)C(=O)N[C@@H](CC(=O)O)C(=O)N[C@H](C(=O)N[C@@H](Cc1c[nH]cn1)C(=O)N[C@@H](CC(N)=O)C(=O)N[C@@H](Cc1ccccc1)C(=O)O)C(C)C)C(C)C [[Ala^1]-HPTH-(1-34)]
- In vivo Chick hypercalcemia [2]: 4600(3500-6000) MRCU/mg

- In vitro Rat kidney adenylate cyclase [1]: 5400(3900-8000) MRCU/mg
Molecule: BPTH-(1-34): synthetic peptide corresponding to 1-34 residues of bovine parathyroid hormone [reference compound]
- In vivo Chick hypercalcemia [2]: 7700(5200-11100) MRCU/mg
- potency relative to whole bovine parathyroid hormone [3]: equipotent

- In vitro Rat kidney adenylate cyclase [1]: 350 (275-425) MRCU/mg
Molecule: HPTH-(1-84) (native): native human parathyroid hormone (1-84)

The remaining lines, values behind:

Molecule: CC[C@H](C)[C@H](NC(=O)[C@H](CCC(=O)O)NC(=O)[C@H](CO)NC(=O)[C@@H](NC(=O)[C@@H](N)CO)C(C)C)C(=O)N[C@@H](CCC(N)=O)C(=O)N[C@@H](CC(C)C)C(=O)N[C@@H](CCSC)C(=O)N[C@@H](Cc1c[nH]cn1)C(=O)N[C@@H](CC(N)=O)C(=O)N[C@@H](CC(C)C)C(=O)NCC(=O)N[C@@H](CCCCN)C(=O)N[C@@H](Cc1c[nH]cn1)C(=O)N[C@@H](CC(C)C)C(=O)N[C@@H](CC(N)=O)C(=O)N[C@@H](CO)C(=O)N[C@@H](CCSC)C(=O)N[C@@H](CCC(=O)O)C(=O)N[C@@H](CCCNC(=N)N)C(=O)N[C@H](C(=O)N[C@@H](CCC(=O)O)C(=O)N[C@@H](Cc1c[nH]c2ccccc12)C(=O)N[C@@H](CC(C)C)C(=O)N[C@@H](CCCNC(=N)N)C(=O)N[C@@H](CCCCN)C(=O)N[C@@H](CCCCN)C(=O)N[C@@H](CC(C)C)C(=O)N[C@@H](CCC(N)=O)C(=O)N[C@@H](CC(=O)O)C(=O)N[C@H](C(=O)N[C@@H](Cc1c[nH]cn1)C(=O)N[C@@H](CC(N)=O)C(=O)N[C@@H](Cc1ccccc1)C(=O)O)C(C)C)C(C)C [HPTH-(1-34)]
- In vitro Rat kidney adenylate cyclase [1]: 1030 (930-1140) MRCU/mg
- In vivo Chick hypercalcemia [2]: 7400(5700-9700) MRCU/mg

B1: BPTH-(1-84) (native): native bovine parathyroid hormone (1-84) (protein, UniProt P01268 32-115, looked up)
Parathyroid hormone: AVSEIQFMHNLGKHLSSMERVEWLRKKLQDVHNFVALGASIAYRDGSSQRPRKKEDNVLVESHQKSLGEADKADVDVLIKAKPQ
modifications: Parathyroid hormone
- In vitro Rat kidney adenylate cyclase [1]: 3000(2500-4000) MRCU/mg
- In vivo Chick hypercalcemia [2]: 2500(2100-4000) MRCU/mg

Reference: patent publication US4086196A, “Parathyroid hormone” (Armour Pharmaceutical Company, priority 1975, dated 1978)
